Source: article PMC10514136, “Peptide-conjugated antimiRs improve myotonic dystrophy type 1 phenotypes by promoting endogenous MBNL1 expression” (Molecular Therapy. Nucleic Acids, 2023)
Read-outs that look alike come from different tables or passages of the source.

Assays:
[1] = test system: MBNL1 protein levels in DM1 cells; format: cell-based, human; details: for Tindex (therapeutic index): Tindex = TC50 x Emax / EC50; for EC50: median effective concentration for MBNL1 increase, DM1 myotubes, lipofection (X-tremeGENE HP), medium replaced after 4 h, cells collected day 4, each concentration in triplicate; for MBNL1 fold change: vs untreated DM1 cells
Experimental: Immortalized MyoD-inducible (doxycycline) DM1 and control fibroblasts were kindly provided by Dr Furling (Institute of Myology, Paris, France).[38] For the activity assay, cells were seeded in 6-well plates at a density of 8 × 10^4 cells/well and grown in DMEM with 4.5 g/L glucose, 1% P/S, and 10% FBS (Sigma, St. Louis, MO). […] In all cases, the cells were grown at 37°C in a humidified atmosphere containing 5% CO2. Transdifferentiation was induced at day 0, and transfection was performed by lipofection with X-tremeGENE HP (Roche, Basel, Switzerland) 24 h later, with antimiRs and test compounds in the cell medium at different concentrations (from 0.4 nM to 5 μM). The medium was replaced with fresh differentiation medium 4 h afterward. In the gymnosis assay, test compounds were added to the culture medium only at the corresponding EC50 concentration. Cells were collected on day 4 of differentiation and were processed for protein extraction.
For total protein extraction, human muscle cells were sonicated while mouse muscles (gastrocnemius and quadriceps) were homogenized in Pierce RIPA buffer (Thermo Scientific, Waltham, MA) supplemented with protease and phosphatase inhibitor cocktails (Roche Applied Science, Penzberg, Germany). Quantification of total protein was performed with a Pierce BCA protein assay kit (Thermo Scientific) using bovine serum albumin as standard.
A 96-well plate QDB assay was used[87] to determine MBNL1 protein levels in all replicates and concentrations of each ON tested. This technique allows for high-throughput screening of low protein concentration samples over conventional western blot (WB) (Figure S9).[88] Cell samples (1 μg/well) and mice samples (2 μg/well) were prepared with 4× loading buffer, denatured (100°C for 5 min) and loaded in QDB plates (Quanticision Diagnostics, Research Triangle Park, NC). For the quantification of in vitro samples, the QDB was performed exactly as described in Moreno et al.[87] […] For Mbnl1 quantification in mouse muscle tissues, we implemented the following modifications: each sample was loaded in quadruplicate on three different plates. One was used to detect Mbnl1 with a mouse MB1a(4A8) antibody (DSHB, Iowa City, IA) using a 1:200 dilution. A second plate was used to quantify tubulin (endogenous normalization control) with a mouse 12G10 antibody (DSHB) using a 1:1,000 dilution. A third plate was used to quantify IgG signal (negative control to subtract background) using an anti-mouse-IgG secondary antibody (Sigma-Aldrich) at 1:3,500 dilution. […] All primary antibodies were detected using horseradish peroxidase-conjugated anti-mouse-IgG secondary antibody (1:5,000 for the anti-mouse plate, 1:2,000 for cell plates, and 1:3,500 for mouse plates [Sigma-Aldrich, MO]). Immunoreactive bands were detected using Pierce ECL Western reagent (Thermo Scientific), and luminescence levels were determined using an Infinite M200 PRO plate reader (Tecan). […] WB assay was performed as described previously.[20]
After obtaining the TC50, EC50, and Emax in vitro, we defined a Tindex as follows: Tindex=TC50×Emax/EC50

[2] = test system: IL-1β, IL-6, MCP-1, IL-12β, TNF-α, IL-15, Mstn-1; assay: Proinflammatory cytokines and Mstn-1 in quadriceps by qRT-PCR; format: in vivo, mouse
[3] = HSALR mice, 9.2 mg/kg (mean) i.v. x3, day 45, qRT-PCR

Substance | Tindex (therapeutic index) [1] | EC50 [1] [nM] | Mstn-1 expression in quadriceps [2, 3] | also measured
6aKC-23b (antisense GGUAAUCCCUGGCAAUGUGAU; all phosphorodiamidate morpholino (PMO), T or U not given here; Pip6aKC peptide conjugated) | 7.78 | 453 |  | MBNL1 fold change ([1]; transfection, 1,000 nM): ~2 fold
6aKC-218 (antisense ACAUGGUUAGAUCAAGCACAA; all phosphorodiamidate morpholino (PMO), T or U not given here; Pip6aKC peptide conjugated) | 22.78 | 138 |  | MBNL1 fold change ([1]; transfection, 1,000 nM): ~1.5 fold
9b2-23b (antisense GGUAAUCCCUGGCAAUGUGAU; all phosphorodiamidate morpholino (PMO), T or U not given here; Pip9b2 peptide conjugated) | 25.19 | 16 | downregulation of Mstn-1 | ΔTindex ([1]; fold change in Tindex relative to the control antagomiR against the same miRNA): 0.34 fold change; IL1β Quads (2^-ddCt qPCR assays) ([2]; mouse, in vivo): 0.49; IL6 Quads (2^-ddCt qPCR assays) ([2]; mouse, in vivo): 0.39; IL12β Quads (2^-ddCt qPCR assays) ([2]; mouse, in vivo): 0.57; IL15 Quads (2^-ddCt qPCR assays) ([2]; mouse, in vivo): 2.25; MCP-1 Quads (2^-ddCt qPCR assays) ([2]; mouse, in vivo): 0.55; TNF-α Quads (2^-ddCt qPCR assays) ([2]; mouse, in vivo): 0.26
9b2-218 (antisense ACAUGGUUAGAUCAAGCACAA; all phosphorodiamidate morpholino (PMO), T or U not given here; Pip9b2 peptide conjugated) | 2.52 | 64.7 |  | 
9b2KC-23b (antisense GGUAAUCCCUGGCAAUGUGAU; all phosphorodiamidate morpholino (PMO), T or U not given here; Pip9b2KC peptide conjugated) | 404.48 | 2 | downregulation of Mstn-1 | TC50 relative to EC50 [1]: 128 fold; MBNL1 fold change ([1]; transfection, 200 nM): ~3 fold
9b2KC-218 (antisense ACAUGGUUAGAUCAAGCACAA; all phosphorodiamidate morpholino (PMO), T or U not given here; Pip9b2KC peptide conjugated) | 198.07 | 2.58 |  | MBNL1 fold change ([1]; transfection, 10 nM): ~6 fold
TCTTACCTCAGTTACAATTTA-Pip9b2 [Scramble, reference compound] |  | 890 | not detected | Emax (maximum fold change) ([1]; highest MBNL1 protein level vs untreated DM1 cells over the concentrations tested, transfection): 1.30 fold change; ability to enhance MBNL1 expression ([1]; transfection, all concentrations tested (10 nM to 5 μM)): no ability to enhance MBNL1 expression at any concentration tested; IL-6 and IL-15 expression in quadriceps [2, 3]: reduced levels of IL-6 and IL-15
